Experimental data published in patent publication US11866416B2, “Streptococcus mutans glucosyl transferase inhibitors for dental caries therapy” (UAB Research Foundation, priority 2018, dated 2024).
Read-outs that look alike come from different tables or passages of the source.

Columns and labels:
S. mutans biofilm = S. mutans biofilm formation and inhibition assay (96-well plates, crystal violet); assay type: cell-based, Streptococcus mutans; conditions: for Biofilm inhibition 200 μM (%): Table 6, chalcones, NI = no inhibition
Experimental: Biofilm assays using 96-well flat-bottom polystyrene microtiter plates were performed to evaluate S. mutans biofilm formation at various conditions as described (Liu et al. (2011) Antimicrobial Agents and Chemotherapy 55, 2679; Zhang et al. (2015) International Journal of Antimicrobial Agents 46, 174), the disclosures of which are incorporated herein by reference in their entirety). Each assay was replicated three times. Compounds that inhibited biofilm formation at minimum concentration (MBIC) were determined by serial dilutions.
S. mutans biofilm formation and inhibition assays. […] Each assay was replicated three times. Minimum biofilm inhibitory concentration (MBIC) of compounds was determined by serial dilutions.
S. mutans biofilm formation and inhibition assays. Biofilm assays using 96-well flat-bottom polystyrene microtiter plates were performed to evaluate S. mutans biofilm formation at various conditions as described. Each assay was replicated […]. Compounds that inhibited 50% biofilm formation were determined by serial dilutions.
S. mutans biofilm formation and inhibition assays. A well-established protocol to study S. mutans biofilm formation in 96-well flat-bottom polystyrene microtiter plates was used, in triplicate (Mattos-Graner, R. O.; Napimoga, M. H.; Fukushima, K.; Duncan, M. J.; Smith, D. J., Comparative analysis of Gtf isozyme production and diversity in isolates of Streptococcus mutans with different biofilm growth phenotypes. Journal of clinical microbiology 2004, 42 (10), 4586-4592). The stock solutions were made up in 100% DMSO, and final concentration of DMSO used in the assays was 1%. Minimum biofilm inhibitory concentration (MBIC) of compounds was determined by serial dilutions.

S. mutans = assay: microbe, parasite or virus in culture; assay type: cell-based, Streptococcus mutans; conditions: for MIC50: Streptococcus mutans, Table 2, >300 = no inhibition up to 300 μM, read-out: Growth Inhibition MIC50; for Growth inhibition 200 μM (%): Table 6, chalcones, NI = no inhibition
Experimental: Cell viability of S. mutans, S. gordonii, S. sanguinis, Aggregatibacter actinomycetemcomitans and Actinomyces. […] The number of colony-forming units (CFU) per milliliter of each sample treated with selected compounds at different concentrations was enumerated after incubation for 24 h at 37° C. and compared to the values obtained from the DMSO control group. Overnight broth cultures were transferred by 1:50 dilutions into fresh THB medium and were allowed to grow until mid-exponential phase (OD470 nm 0.6) before transfer to 96-well plates containing desired concentration of the compound. After 16 h incubation, bacterial growth was measured at OD470, and normalized to the DMSO control (100%).
Cell viability of S. mutans and commensal S. gordonii and S. sanguinis. Effects of lead small molecules on cell viability were examined. The number of colony-forming units (CFU) per milliliter for each compound at different concentrations was determined after incubation for 24 h at 37° C. and compared to the values obtained from the DMSO control group.
Cell viability of S. mutans and commensal S. gordonii and S. sanguinis. […] DMSO served as a control group and provided a relative comparison for the number of colony-forming units (CFU) per milliliter for each compound at different concentrations was determined after incubation for 24 h at 37° C. The final concentration of DMSO used in the assays was 1%.

[1] = Streptococcus mutans, Table 1, >500 = no inhibition up to 500 μM, read-out: Biofilm Inhibition IC50
[2] = Streptococcus mutans, Table 2, read-out: Biofilm Inhibition IC50
[3] = read-out: S. mutans biofilm IC50

Structure (SMILES) | IC50 (S. mutans biofilm; [1]) [µM] | IC50 (S. mutans biofilm; [2]) [µM] | MIC50 (S. mutans) [µM] | other results
N=C(N)c1ccc(/C=C/c2ccc(C(=N)N)cc2O)cc1 [Compound 5] |  |  |  | effect on S. mutans biofilm in the preliminary screen (S. mutans biofilm; chalcones, 200 μM): did not possess any bactericidal or anti-biofilm properties; IC50 (S. mutans biofilm; [3]): 104 µM; S. mutans growth IC50 / MIC50 (S. mutans): 179 µM; effect on S. mutans growth (S. mutans; chalcones, up to 200 μM): did not possess any bactericidal or anti-biofilm properties
Oc1cc(O)cc(/C=C/c2ccc(O)c(O)c2)c1 [Compound 8] |  |  |  | Biofilm inhibition 200 μM (%) (S. mutans biofilm; 200 μM): 81 ± 2%; IC50 (S. mutans biofilm; [3]): 52 µM; Growth inhibition 200 μM (%) (S. mutans; 200 μM): 82 ± 2%
COc1ccc(/C=C/C(=O)c2ccc(OC)c(OC)c2)cc1O [Compound 13] |  |  |  | Biofilm inhibition 200 μM (%) (S. mutans biofilm; 200 μM): 27 ± 4%; biofilm inhibition at 200 μM (S. mutans biofilm; chalcones, 200 μM): 30%; activity of stilbenes against S. mutans biofilm (S. mutans biofilm; stilbenes): not active against biofilm and growth; Growth inhibition 200 μM (%) (S. mutans; 200 μM): 30 ± 0.7%; growth inhibition at 200 μM (S. mutans; chalcones, 200 μM): 30%; activity of stilbenes against S. mutans growth (S. mutans; stilbenes): not active against biofilm and growth
CC(C)(C)OC(=O)NCc1ccccc1NC(=O)c1cc2cc([N+](=O)[O-])ccc2[nH]1 [Compound 298C9] |  | 26.8 | > 300 | 
NCc1ccccc1NC(=O)c1cc2cc([N+](=O)[O-])ccc2[nH]1 [Compound 298C10] |  | 98.3 | > 300 | 
COC(=O)c1cccc(NC(=O)c2cc3ccccc3s2)c1 [Compound 298D5] |  | 121 | > 300 | 
NC(=O)c1ccccc1OC(=O)c1cnc2ccccc2c1 [Compound 298F7] |  | 30.4 | > 300 | 
COC(=O)c1cccc(NC(=O)c2ccc3ccccc3n2)c1 [Compound 298G5] |  | 92.3 | > 300 | 

Now from value to compound, other results behind:

IC50 (S. mutans biofilm; [1]) [µM] | IC50 (S. mutans biofilm; [2]) [µM] | MIC50 (S. mutans) [µM] | Structure (SMILES) | other results
146 | 146 | > 300 | NC(=O)c1ccccc1NC(=O)c1c[nH]c2ccccc12 [Compound 3F] | 
68.8 | 68.8 | > 300 | COc1ccc2[nH]c(C(=O)Nc3ccccc3C(N)=O)cc2c1 [Compound 3G] | 
106 | 106 | > 300 | NC(=O)c1ccccc1NC(=O)c1cnc2ccc(Br)cc2c1 [Compound 3J] | 
103 | 103 | > 300 | NC(=O)c1ccccc1NC(=O)c1cc2cc([N+](=O)[O-])ccc2o1 [Compound 3K] | 
42.3 | 42.3 | > 300 | NC(=O)c1cccc(NC(=O)c2cc3cc([N+](=O)[O-])ccc3s2)c1 [Compound 3P] | 
50.4 | 50.4 | > 300 | NC(=O)c1ccccc1OC(=O)c1cc2cc([N+](=O)[O-])ccc2s1 [Compound 3Q] | 
8.6 | 8.6 | > 300 | NC(=O)c1cccc(NC(=O)c2cnc3ccccc3c2)c1 [Compound 3R] | 
92.3 | 92.3 | > 300 | COC(=O)c1ccc(NC(=O)c2cnc3ccccc3c2)cc1 [Compound 3S] | 
54.4 | 54.4 | > 300 | COC(=O)c1cccc(NC(=O)c2cc3cc([N+](=O)[O-])ccc3s2)c1 [Compound 3U] | 
41.2 | 41.2 | > 300 | COC(=O)c1ccc(NC(=O)c2cc3ccccc3s2)cc1 [Compound 3V] | 
56.6 | 56.6 | > 300 | COc1ccc2[nH]c(C(=O)Nc3cccc(C(N)=O)c3)cc2c1 [Compound 3W] | 
116 | 116 | > 300 | NC(=O)c1cccc(NC(=O)c2cc3ccccc3s2)c1 [Compound 3X] | 
45.6 | 45.6 | > 300 | NC(=O)c1ccc(NC(=O)c2cc3ccccc3s2)cc1 [Compound 3Y] | 
38.8 | 38.8 | > 300 | NC(=O)c1cccc(NC(=O)c2cc3cc([N+](=O)[O-])ccc3o2)c1 [Compound 3Z] | 
